# Measured values: PMC12284876 (RSC Advances, 2025)
# Target: α-glucosidase from Saccharomyces cerevisiae (Saccharomyces cerevisiae, UniProt P53341)
# Assay: α-Glucosidase inhibitory assay
# Format: biochemical
# Details: mean ± standard error, n = 3; for Inhibition (I, %) 10 μM: compound at 10 μM; for Inhibition (I, %) 10 μM / Inhibition (I, %) 25 μM: series 250–10 μM; for Inhibition (I, %) 25 μM: compound at 25 μM; for Inhibition (I, %) 50 μM: compound at 50 μM; for Inhibition (I, %) 100 μM: compound at 100 μM; for Inhibition (I, %) 250 μM: compound at 250 μM
# Chain of α-glucosidase from Saccharomyces cerevisiae (P53341 whole entry): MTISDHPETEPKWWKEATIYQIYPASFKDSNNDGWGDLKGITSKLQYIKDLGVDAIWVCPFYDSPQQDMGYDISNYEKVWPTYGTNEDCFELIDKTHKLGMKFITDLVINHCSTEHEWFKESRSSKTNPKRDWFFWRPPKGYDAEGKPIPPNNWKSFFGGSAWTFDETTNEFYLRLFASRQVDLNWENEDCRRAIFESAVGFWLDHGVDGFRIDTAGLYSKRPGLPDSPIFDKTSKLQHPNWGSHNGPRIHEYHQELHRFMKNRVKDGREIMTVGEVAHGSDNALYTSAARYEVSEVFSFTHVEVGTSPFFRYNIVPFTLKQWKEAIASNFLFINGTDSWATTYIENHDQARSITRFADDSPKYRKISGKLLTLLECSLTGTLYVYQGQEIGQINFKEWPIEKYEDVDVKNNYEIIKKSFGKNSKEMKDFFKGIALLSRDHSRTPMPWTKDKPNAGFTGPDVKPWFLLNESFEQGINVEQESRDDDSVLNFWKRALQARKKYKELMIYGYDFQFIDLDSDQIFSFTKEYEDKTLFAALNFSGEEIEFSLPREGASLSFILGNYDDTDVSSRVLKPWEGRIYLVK
"Inhibition (I, %) 10 μM [%]","Inhibition (I, %) 25 μM [%]","Inhibition (I, %) 50 μM [%]","Inhibition (I, %) 100 μM [%]","Inhibition (I, %) 250 μM",SMILES
8.6 ± 1.4,44.1 ± 2.9,84.9 ± 1.1,98.5 ± 2.2,^b (Inhibition > 99%),"O=c1c(O)c(-c2ccc(O)cc2)oc2cc(O)cc(O)c12 [Compound 8, kaempferol]"
5.45 ± 0.68,9.3 ± 1.2,21.0 ± 1.6,26.8 ± 1.0,63.8 ± 1.0%,C[C@H]1O[C@H](O[C@H]2[C@H](O)[C@@H](O)[C@@H](O[C@H]3[C@H](O)[C@@H](O)C(O)O[C@@H]3CO)O[C@@H]2CO)[C@H](O)[C@@H](O)[C@@H]1N[C@H]1C=C(CO)[C@@H](O)[C@H](O)[C@H]1O (stereo partly shown) [Acarbose]
